Results as given in patent US20200325487A1, “A COM[…] FOR REDUCING RANDOM I[…] WHEN TR[…]” (UNIVERSITEIT LEIDEN, priority 2017, published 2020).

Experiments:
[1] = tested on: root tips of Arabidopsis seedlings (wild type, ku80, mre11-2, ku80mre11-2); assay: Cell death assay (propidium iodide staining of root tips); assay type: in vivo, Arabidopsis thaliana; details: 0.05 μg/ml bleomycin for 1 day and 4 days; 4-d-old seedlings; more cell death in ku80mre11-2 double mutant
Method: Four days old seedlings on MS-agar plates were transferred to new MS-plates with DNA damaging agents. After one or four days treatments, the seedlings were placed in propidium iodide solution (PI, Sigma-Aldrich, 5 μg/ml in water) for 1 min and rinsed three times with water. Root tips were then transferred to slides in a drop of water and covered with a cover slip for observation under the fluorescence microscope.

[2] = tested on: wild type, ku80, mre11-2 and ku80mre11-2 mutant seedlings; assay: Assays for sensitivity to bleomycin and methyl methane sulfonate (MMS); assay type: in vivo, Arabidopsis thaliana; details: ku80mre11-2 double mutant, 0.02, 0.05 μg/ml bleomycin or 0.005%, 0.01% MMS; for fresh weight of double mutant plants in comparison with wild type and each of the single mutants: 10-days-old plate-grown plants; for growth phenotype of double mutant compared with each of the single mutants: scored 2 weeks after germination
Method: Seeds of wild type, ku80, mre11-2 and ku80mre11-2 mutants were surface-sterilized as described (Weijers et al. 2001) and germinated on solid % MS medium without additions or containing 0.02 μg/ml or 0.05 μg/ml bleomycin (Sigma), 0.005% (v/v), 0.007% or 0.01% MMS (Sigma) and photographed after 2 weeks. After 10 days growth, the fresh weight (compared with controls) was determined by weighing the seedlings in batches of 20 in duplicate. Statistical analyses were performed using Prism version 5 (GraphPad Software Inc.).

Compound | cell death in the root meristem (PI staining) [1] | fresh weight of double mutant plants in comparison with wild type and each of the single mutants [2] | growth phenotype of double mutant compared with each of the single mutants [2]
bleomycin | caused cell death in the root meristem of both wild type and the mutants | dramatically reduced | grew more slowly and developed fewer true leaves
COS(C)(=O)=O [MMS, Methyl Methane Sulfonate] |  | dramatically reduced | grew more slowly and developed fewer true leaves
